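Dose response: 5 concentrations. Exposure: 48 h. Format: 96-well plates. Endpoint: linear interpolation; highest concentration if not reached. Abbreviation: GI50, concentration required for 50% inhibition of growth.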 Active and inactive are the calls of the source. Rule as the data show it: active = GI50 up to about 1.1 µM and inactive = higher.
How the values were obtained:
Test in all cases: NCI-60 cell line screen, 48 h
[1] = system: HOP-62
[2] = system: OVCAR-4
[3] = system: SF-295
[4] = system: SR
[5] = system: NCI-H23
[6] = system: MOLT-4
[7] = system: UACC-257
[8] = system: EKVX
[9] = system: NCI-H522
[10] = system: HCT-116
[11] = system: SK-MEL-5
[12] = system: KM12
[13] = system: NCI-H226
[14] = system: A498
[15] = system: SK-OV-3
[16] = system: SNB-19
[17] = system: LOX IMVI
[18] = system: HL-60
[19] = system: SNB-75

| Compound | GI50 [1] | GI50 [2] | GI50 [3] | GI50 [4] | GI50 [5] | GI50 [6] | GI50 [7] | GI50 [8] | GI50 [9] | GI50 [10] | GI50 [11] | GI50 [12] | GI50 [13] | GI50 [14] | GI50 [15] | GI50 [16] | GI50 [17] | GI50 [18] | GI50 [19] |
| --- | --- | --- | --- | --- | --- | --- | --- | --- | --- | --- | --- | --- | --- | --- | --- | --- | --- | --- | --- |
| NCCCCc1cc(O)c2c(c1O)C(=O)c1ccccc1C2=O | 8.39 µM (inactive) | 15.4 µM (inactive) | 14.1 µM (inactive) | 3.18 µM (inactive) | 14.3 µM (inactive) | 2.81 µM (inactive) | 17.5 µM (inactive) | 17.1 µM (inactive) | 10 µM (inactive) | 4.75 µM (inactive) | 12.4 µM (inactive) | 5.41 µM (inactive) | 4.56 µM (inactive) | 18.2 µM (inactive) | 14.9 µM (inactive) | 14.2 µM (inactive) | 7.59 µM (inactive) |  |  |
| COc1ccc(-c2nc(-c3cnccn3)n(C/C=C/c3ccccc3)n2)cc1 | 21.5 µM (inactive) | 21.3 µM (inactive) | 32.1 µM (inactive) | > 100 µM (inactive) | > 100 µM (inactive) | > 100 µM (inactive) | > 100 µM (inactive) |  | 32.8 µM (inactive) | 92.3 µM (inactive) | 44.4 µM (inactive) | > 100 µM (inactive) |  |  | 17.9 µM (inactive) | 37.2 µM (inactive) | > 100 µM (inactive) | > 100 µM (inactive) | 21.8 µM (inactive) |
| COc1ccc(COCC(Cn2ccnc2)OCc2ccc(C(=O)O)cc2)cc1 (stereo not drawn) | > 100 µM (inactive) | > 100 µM (inactive) | > 100 µM (inactive) |  | > 100 µM (inactive) | > 100 µM (inactive) | > 100 µM (inactive) | > 100 µM (inactive) | > 100 µM (inactive) | > 100 µM (inactive) | > 100 µM (inactive) | > 100 µM (inactive) | > 100 µM (inactive) | > 100 µM (inactive) | > 100 µM (inactive) |  | > 100 µM (inactive) | > 100 µM (inactive) | 59.6 µM (inactive) |
| CSc1ccc(/C=C2/C[N+](C)(C)C/C(=C/c3ccc(SC)cc3)C2=O)cc1 |  |  | 27.2 µM (inactive) | 8.57 µM (inactive) | > 10 µM (inactive) | 5.31 µM (inactive) | 15.8 µM (inactive) | 19.1 µM (inactive) | 7.36 µM (inactive) |  |  | 4.85 µM (inactive) | 32.1 µM (inactive) |  |  |  |  | 2.49 µM (inactive) | 6.52 µM (inactive) |
| Cn1nc(-c2ccccc2)c(C(=O)/C=C/c2ccc(F)cc2)c(N2CCCC2)c1=O |  |  |  |  | 10.9 µM (inactive) | 4.41 µM (inactive) |  | 19.2 µM (inactive) | 6.4 µM (inactive) | 6.5 µM (inactive) | 12.4 µM (inactive) |  |  |  | 19.5 µM (inactive) | 17.2 µM (inactive) | 17.9 µM (inactive) | 0.644 µM (active) |  |
| C=C(C)[C@H]1CC[C@@]23O[C@@H]2[C@@H](C[C@@]2(C)CC(=O)[C@H](CC(=O)C1)O2)OC(=O)[C@@]12CC[C@H](C(=C)C)CC(=O)C[C@H]4O[C@](C)(CC4=O)C[C@@H](OC3=O)[C@@H]1O2 [SINGARDIN] | > 100 µM (inactive) | > 100 µM (inactive) | > 100 µM (inactive) |  | > 100 µM (inactive) | > 100 µM (inactive) | > 100 µM (inactive) | > 100 µM (inactive) | > 100 µM (inactive) | > 100 µM (inactive) | 74.5 µM (inactive) | 52.5 µM (inactive) | > 100 µM (inactive) | > 100 µM (inactive) | > 100 µM (inactive) | > 100 µM (inactive) | > 100 µM (inactive) | > 100 µM (inactive) | > 100 µM (inactive) |
| C=C1C(=O)OC2/C=C(\C)C3OC3/C=C(/C(=O)OC)C(O)C(OC(=O)C3(C)OC3C)C12 (stereo not drawn) | 17.7 µM (inactive) | 2.88 µM (inactive) | 13.6 µM (inactive) | 0.566 µM (active) | 1.85 µM (inactive) | 0.681 µM (active) | 1.53 µM (inactive) | 2.58 µM (inactive) | 0.193 µM (active) | 1.11 µM (active) | 1.31 µM (inactive) | 2.95 µM (inactive) | 15.1 µM (inactive) | 7.64 µM (inactive) | 13.4 µM (inactive) |  | 1.76 µM (inactive) |  | 13.5 µM (inactive) |
| Cn1c2ccccc2n2c3ncccc3c(=O)cc12 | 32.1 µM (inactive) | > 100 µM (inactive) | 45.1 µM (inactive) |  | 43 µM (inactive) | 36.9 µM (inactive) | 75 µM (inactive) | 16.3 µM (inactive) | 31.3 µM (inactive) | 15 µM (inactive) | 32.9 µM (inactive) | 71.9 µM (inactive) | 44.3 µM (inactive) | 24.6 µM (inactive) | > 100 µM (inactive) | 35.2 µM (inactive) | 29.9 µM (inactive) |  | 44.1 µM (inactive) |
